Here are results for one compound from patent publication US11440908B2, “Crystalline forms of dasatinib” (Johnson Matthey Public Limited Company, priority 2018, dated 2022).

What all share (format): physicochemical
Series [1] is described as follows: Storage stability at controlled temperature/relative humidity.
A short description of series [2]: Moisture uptake on exposure to 0-95% RH. The note with it: exposed to 0-95% RH.
Series [3] in a line: Retention of solid form after drying under vacuum. The note with it: dried under vacuum at about 45° C. overnight (about 18-20 h). On the procedure:
(§1) About 120 mg of dasatinib is dispensed in about 1 mL of ethyl formate and stirred at temperatures of about 15° C. or about 45° C. for about 24 h. The slurries that are obtained at either of two temperatures are filtered, to yield Form I of ethyl formate solvate of dasatinib.

A short description of series [4]: Retention of solid form under high humidity conditions. The note with it: about ≥95% relative humidity (RH) overnight (about 18-20 h), dried material. On the procedure: as §1

Structures are written as SMILES. Where only a bound is given, the exact number is not on record here.

`Cc1nc(Nc2ncc(C(=O)Nc3c(C)cccc3Cl)s2)cc(N2CCN(CCO)CC2)n1` [dasatinib]: the stability on storage result in series [1] (25° C./97% RH) and in series [1] (40° C./75% RH) was “stable up to 5 months” in each case. Moreover, the moisture uptake in series [2] is reported as less than 1%. The “solid form after drying under vacuum” value in series [3] is given as “retains its form”. The “solid form after exposure to high humidity” value in series [4] is given as “retains its form”.
